Data published in ChEMBL document CHEMBL4742390, “Derivatives of quinolines as inhibitors of dyrk1a and/or dyrk1b kinases” (2019).

How the values were obtained:
[1] = molecular target: Dual specificity tyrosine-phosphorylation-regulated kinase 1A (Homo sapiens, UniProt Q13627); assay: Inhibition of N-terminal GST tagged human DYRK1A expressed in Sf21 cells incubated for 30 mins by ADP-Glo assay
[2] = molecular target: Dual specificity tyrosine-phosphorylation-regulated kinase 1B (Homo sapiens, UniProt Q9Y463); assay: Inhibition of N-terminal GST tagged human DYRK1B expressed in Sf21 cells incubated for 60 mins by ADP-Glo assay
Chain of Dual specificity tyrosine-phosphorylation-regulated kinase 1B (Q9Y463 whole entry): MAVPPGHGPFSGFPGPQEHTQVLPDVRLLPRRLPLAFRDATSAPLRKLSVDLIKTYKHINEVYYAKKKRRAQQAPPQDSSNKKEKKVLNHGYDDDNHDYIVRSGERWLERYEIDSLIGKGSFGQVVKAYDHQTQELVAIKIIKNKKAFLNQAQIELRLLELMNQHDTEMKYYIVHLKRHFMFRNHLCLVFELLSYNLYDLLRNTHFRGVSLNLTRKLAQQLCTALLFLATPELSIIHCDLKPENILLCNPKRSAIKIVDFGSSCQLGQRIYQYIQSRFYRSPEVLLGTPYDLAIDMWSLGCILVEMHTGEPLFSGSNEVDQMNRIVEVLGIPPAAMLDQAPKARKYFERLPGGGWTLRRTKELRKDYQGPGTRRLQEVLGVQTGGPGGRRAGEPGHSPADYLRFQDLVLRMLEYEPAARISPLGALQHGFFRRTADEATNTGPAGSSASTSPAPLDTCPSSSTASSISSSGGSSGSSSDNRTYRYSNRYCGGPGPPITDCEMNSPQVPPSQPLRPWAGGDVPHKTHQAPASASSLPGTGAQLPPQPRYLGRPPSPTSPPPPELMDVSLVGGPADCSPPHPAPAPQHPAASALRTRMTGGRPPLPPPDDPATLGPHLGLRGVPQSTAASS

SMILES	IC50 [1] [nM]	IC50 [2] [nM]	IC50 ([2]; sf21) [nM]	IC50 ([1]; sf21) [nM]
CNC(=O)c1cnc2[nH]cc(-c3cc(F)c4nccc(N5CCC[C@@H](N)C5)c4c3)c2c1	< 10	< 10		
Fc1cc(-c2c[nH]c3ncccc23)cc2cccnc12	< 10	< 10		
CNC(=O)c1cnc2[nH]cc(-c3ccc4ncc(NCc5cccc(Cl)c5)c(N5CCOCC5)c4c3)c2c1	< 10		10	
CNC(=O)c1cnc2[nH]cc(-c3cc(F)c4nccc(-c5cnccc5C)c4c3)c2c1	< 10	< 10		
C=CCN(C)C(=O)c1cnc2[nH]cc(-c3cc(Cl)c4ncccc4c3)c2c1	< 10		10	
COc1cc(-c2c[nH]c3ncccc23)cc2cccnc12		≥ 100		
O=C(NCc1ccccc1)c1cnc2[nH]cc(-c3cc(Cl)c4ncccc4c3)c2c1	< 10		10	
N[C@H]1CC[C@H](Nc2c([N+](=O)[O-])cnc3ccc(-c4c[nH]c5ncc(C(=O)NCc6cccnc6)cc45)cc23)CC1			10	10
CC(=O)N1CCC(Nc2c(N)cnc3ccc(-c4c[nH]c5ncccc45)cc23)CC1	< 10	< 10		
Fc1cc(-c2c[nH]c3ncc(CNCc4ccccc4)cc23)cc2c(-c3cccnc3)ccnc12	< 10	< 10		
N[C@H]1CCN(c2ccnc3ccc(-c4c[nH]c5ncccc45)cc23)C1		< 10		
CNC(=O)c1cnc2[nH]cc(-c3ccc4ncc(NC(C)=O)c(N5CCOCC5)c4c3)c2c1	< 10	< 10		
CC(=O)Nc1cnc2[nH]cc(-c3cc(F)c4nccc(-c5cccnc5)c4c3)c2c1	< 10	< 10		
C=CC1CN2CCC1CC2[C@H](O)c1ccnc2ccc(-c3c[nH]c4ncccc34)cc12 (some centres not stated)	< 10	< 10		
Cc1cc(-c2c[nH]c3ncccc23)cc2c(-c3cccnc3)ccnc12			10	
CNC(=O)c1cnc2[nH]cc(-c3ccc4ncc([N+](=O)[O-])c(N5CCC[C@H](N)C5)c4c3)c2c1	< 10		10	
CNC(=O)c1cnc2[nH]cc(-c3ccc4ncc(NCC5CCOCC5)c(N5CCOCC5)c4c3)c2c1	< 10		10	
NCCCNC(=O)c1cnc2[nH]cc(-c3cc(F)c4ncccc4c3)c2c1	< 10	< 10		
c1cnc2ccc(-c3c[nH]c4ncccc34)cc2c1	< 10	< 10		
C=CCN(C)C(=O)c1cnc2[nH]cc(-c3cc(F)c4ncccc4c3)c2c1	< 10	< 10		
N[C@H]1CC[C@H](Nc2ccnc3ccc(-c4c[nH]c5ncccc45)cc23)CC1		≥ 100		
CNC(=O)c1cnc2[nH]cc(-c3cc(OC)c4ncccc4c3)c2c1		≥ 100		

SMILES	IC50 [1] [nM]	IC50 [2] [nM]	IC50 ([2]; sf21) [nM]	IC50 ([1]; sf21) [nM]
CNC(=O)c1cnc2[nH]cc(-c3cc(F)c4nccc(CCc5ccccc5)c4c3)c2c1	< 10	< 10		
CN1CCC(N(C)c2c([N+](=O)[O-])cnc3ccc(-c4c[nH]c5ncccc45)cc23)CC1			10	10
N[C@H]1CCCN(c2ccnc3ccc(-c4c[nH]c5ncccc45)cc23)C1	< 10	< 10		
Clc1ccnc2ccc(-c3c[nH]c4ncccc34)cc12			10	
Cc1cc(-c2c[nH]c3ncccc23)cc2cccnc12		≥ 100		
Clc1cc(-c2c[nH]c3ncccc23)cc2cccnc12	< 10	< 10		
c1cnc2[nH]cc(-c3ccc4nccc(-c5ccncc5)c4c3)c2c1	< 10	< 10		
CN1CCC(Nc2c(C#N)cnc3ccc(-c4c[nH]c5ncccc45)cc23)CC1			10	
C=CCN(C)C(=O)c1cnc2[nH]cc(-c3ccc4nccc(Cl)c4c3)c2c1	< 10		10	
C=CCN(C)C(=O)c1cnc2[nH]cc(-c3cc(F)c4nccc(-c5cccnc5)c4c3)c2c1	< 10		10	
CNC(=O)c1cnc2[nH]cc(-c3cc(F)c4nccc(-c5cccnc5)c4c3)c2c1	< 10	< 10		
Cc1cc(-c2c[nH]c3ncccc23)cc2c(-c3ccccc3)ccnc12	≥ 100	≥ 100		
NCCCNC(=O)c1cnc2[nH]cc(-c3cc(Cl)c4ncccc4c3)c2c1	< 10	< 10		
CNC(=O)c1cnc2[nH]cc(-c3ccc4ncc(NCc5cccc(Cl)c5)c(N5CCC[C@H](N)C5)c4c3)c2c1	< 10		10	
C=CCN(C)C(=O)c1cnc2[nH]cc(-c3cc(OC)c4ncccc4c3)c2c1	≥ 100	≥ 100		
CC(=O)Nc1cnc2ccc(-c3c[nH]c4ncc(C(=O)NCc5cccnc5)cc34)cc2c1	< 10	< 10		
CN1CCC(Nc2ccnc3ccc(-c4c[nH]c5ncccc45)cc23)CC1			10	
O=C(NCc1cccnc1)c1cnc2[nH]cc(-c3cc(F)c4nccc(-c5cccnc5)c4c3)c2c1	< 10	< 10		
FC(F)(F)Oc1cc(-c2c[nH]c3ncccc23)cc2cccnc12		≥ 100		10
COc1cc(-c2c[nH]c3ncc(C(N)=O)cc23)cc2c(-c3cccnc3)ccnc12		≥ 100		10
CNC(=O)c1cnc2[nH]cc(-c3ccc4nccc(-c5cccnc5)c4c3)c2c1	< 10	< 10		

Now from value to compound:

IC50 [1] [nM]	IC50 [2] [nM]	IC50 ([2]; sf21) [nM]	IC50 ([1]; sf21) [nM]	SMILES
< 10	< 10			Nc1cnc2ccc(-c3c[nH]c4ncc(C(=O)NCc5cccnc5)cc34)cc2c1
< 10	< 10			Fc1cc(-c2c[nH]c3ncccc23)cc2c(-c3cccnc3)ccnc12
< 10	< 10			O=C(NCc1ccccc1)c1cnc2[nH]cc(-c3cc(F)c4ncccc4c3)c2c1
< 10	< 10			N[C@@H]1CCCN(c2ccnc3c(F)cc(-c4c[nH]c5ncc(C(=O)NCc6cccnc6)cc45)cc23)C1
< 10	< 10			CNC(=O)c1cnc2[nH]cc(-c3ccc4ncccc4c3)c2c1
< 10	< 10			O=C(NCc1cccnc1)c1cnc2[nH]cc(-c3ccc4ncc(NCC5CCOCC5)cc4c3)c2c1
< 10	< 10			NCCCNC(=O)c1cnc2[nH]cc(-c3cc(F)c4nccc(-c5cccnc5)c4c3)c2c1
< 10	< 10			CNC(=O)c1cnc2[nH]cc(-c3cc(F)c4ncccc4c3)c2c1
< 10	< 10			c1cncc(-c2ccnc3ccc(-c4c[nH]c5ncccc45)cc23)c1
< 10		10		O=C(NCc1ccccc1)c1cnc2[nH]cc(-c3cc(F)c4nccc(-c5cccnc5)c4c3)c2c1
< 10	< 10			CNC(=O)c1cnc2[nH]cc(-c3cc(F)c4nccc(N5CCC[C@H](N)C5)c4c3)c2c1
< 10	< 10			CNC(=O)c1cnc2[nH]cc(-c3ccc4nccc(N5CCOCC5)c4c3)c2c1
< 10	< 10			c1cnc2[nH]cc(-c3ccc4ncc(NCc5ccoc5)cc4c3)c2c1
	≥ 100			CNC(=O)c1cnc2[nH]cc(-c3cc(C)c4nccc(-c5cccnc5)c4c3)c2c1
< 10	< 10			CNC(=O)c1cnc2[nH]cc(-c3ccc4nccc(Cl)c4c3)c2c1
< 10		10		C=CCN(C)Cc1cnc2[nH]cc(-c3cc(F)c4nccc(-c5cccnc5)c4c3)c2c1
< 10	< 10			N[C@@H]1CCCN(c2ccnc3c(F)cc(-c4c[nH]c5ncc(CNCc6ccccc6)cc45)cc23)C1
< 10		10		C=CCCCc1ccnc2ccc(-c3c[nH]c4ncc(CN(C)CC=C)cc34)cc12
< 10	< 10			CNC(=O)c1cnc2[nH]cc(-c3ccc4ncc(N)c(N5CCC[C@H](N)C5)c4c3)c2c1
< 10	< 10			c1ccc(-c2ccnc3ccc(-c4c[nH]c5ncccc45)cc23)cc1
< 10	< 10			N[C@@H]1CCCN(c2ccnc3c(F)cc(-c4c[nH]c5ncc(C(=O)NCc6cncnc6)cc45)cc23)C1
< 10		10		N[C@H]1CC[C@H](Nc2c(NCC3CCOCC3)cnc3ccc(-c4c[nH]c5ncc(C(=O)NCc6cccnc6)cc45)cc23)CC1
< 10	< 10			NC(=O)c1cnc2[nH]cc(-c3cc(F)c4ncccc4c3)c2c1
